# Results published in article PMC10125328 (ACS Bio & Med Chem Au, 2023).
# “And” between values parts separate entries of the source, which are not always exact repeats. Equal values may be shown once. Read-outs that look alike come from different tables or passages of the source.
# Tests used:
# Ftu-1 β-lactamase [1] = biological target: T1, Ftu-1 β-lactamase (Francisella tularensis, UniProt Q5NH60); settings: cited from earlier work
# Ftu-1 β-lactamase [2] = biological target: T1, Ftu-1 β-lactamase; assay: biochemical
# Ftu-1 β-lactamase [3] = biological target: T1, Ftu-1 β-lactamase; type: biochemical
# T1 sequence (Q5NH60 1-287): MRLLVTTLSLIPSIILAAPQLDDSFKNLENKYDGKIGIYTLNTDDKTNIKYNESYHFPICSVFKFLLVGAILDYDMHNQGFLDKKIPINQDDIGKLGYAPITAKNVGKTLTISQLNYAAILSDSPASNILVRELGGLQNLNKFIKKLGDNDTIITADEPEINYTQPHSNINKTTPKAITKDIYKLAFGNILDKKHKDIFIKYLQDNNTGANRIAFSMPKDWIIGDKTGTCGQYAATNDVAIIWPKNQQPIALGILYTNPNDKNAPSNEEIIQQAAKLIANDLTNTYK
smiles,measurement,setting,value
CO/N=C(\C(=O)N[C@@H]1C(=O)N2C(C(=O)O)=C(COC(N)=O)CS[C@H]12)c1ccco1 [cefuroxime],Km,Ftu-1 β-lactamase [1],14 ± 2 µM
CO[C@@]1(NC(=O)Cc2cccs2)C(=O)N2C(C(=O)O)=C(COC(N)=O)CS[C@@H]21 [cefoxitin],hydrolysis in the presence of Ftu-1,Ftu-1 β-lactamase [1],unhydrolyzed
CC1(C)[C@H](C(=O)O)N2C(=O)C[C@H]2S1(=O)=O [sulbactam],Ki,Ftu-1 β-lactamase [2],21.1 µM
C[C@@H](O)[C@H]1C(=O)N2C(C(=O)O)=C(SCCN=CN)C[C@H]12 [imipenem],Ki,Ftu-1 β-lactamase [2],73.8 µM
same,Km,Ftu-1 β-lactamase [1],31 ± 4 µM
same,kcat,Ftu-1 β-lactamase [1],0.017 ± 0.001 S^–1
C[C@]1(Cn2ccnn2)[C@H](C(=O)O)N2C(=O)C[C@H]2S1(=O)=O [tazobactam],Ki,Ftu-1 β-lactamase [2],1.19 µM and 1.2 µM
O=C(O)[C@H]1/C(=C/CO)O[C@@H]2CC(=O)N21 [clavulanic acid],Ki,Ftu-1 β-lactamase [2],30.7 µM
C[C@H]1[C@H](NC(=O)/C(=N\OC(C)(C)C(=O)O)c2csc(N)n2)C(=O)N1S(=O)(=O)O [aztreonam],hydrolysis in the presence of Ftu-1,Ftu-1 β-lactamase [1],unhydrolyzed
CC(C)(O/N=C(\C(=O)N[C@@H]1C(=O)N2C(C(=O)[O-])=C(C[n+]3ccccc3)CS[C@H]12)c1csc(N)n1)C(=O)O [ceftazidime],kcat,Ftu-1 β-lactamase [1],0.022 ± 0.001 S^–1
C[C@@H](O)[C@H]1C(=O)N2C(C(=O)O)=C(S[C@@H]3CN[C@H](C(=O)N(C)C)C3)[C@H](C)[C@H]12 [meropenem],Ki,Ftu-1 β-lactamase [2],1.53 µM
O=C(Cc1cccs1)N[C@@H]1C(=O)N2C(C(=O)O)=C(CSc3ccc([N+](=O)[O-])c(C(=O)O)c3)CS[C@H]12 [CENTA],Km,Ftu-1 β-lactamase [3]; pH 4.8,655 ± 37.1 µM
same,Vmax,Ftu-1 β-lactamase [3]; pH 4.8,1.001 ± 0.005 µM/min
same,kcat,Ftu-1 β-lactamase [3]; pH 4.8,101 ± 1 min^–1
same,Vmax,Ftu-1 β-lactamase [3]; pH 5.8,13.12 ± 0.62 µM/min
same,kcat,Ftu-1 β-lactamase [3]; pH 5.8,1312.75 ± 62.75 min^–1
same,Vmax,Ftu-1 β-lactamase [3]; pH 6.4,24.8 ± 0.9 µM/min
same,Vmax,Ftu-1 β-lactamase [3]; pH 7.2,30.5 ± 0.5 µM/min
same,Km,Ftu-1 β-lactamase [3]; pH 7.6,128 ± 57 µM
same,Vmax,Ftu-1 β-lactamase [3]; pH 7.6,49.51 ± 15.84 µM/min
same,kcat,Ftu-1 β-lactamase [3]; pH 7.6,4951.67 ± 1583 min^–1
same,Km,Ftu-1 β-lactamase [3]; pH 8.5,228 ± 11.1 µM
same,kcat,Ftu-1 β-lactamase [3]; pH 9.5,38.96 ± 11.2 min^–1
same,Km,Ftu-1 β-lactamase [3]; pH 10.5,218 ± 30.8 µM
same,kcat,Ftu-1 β-lactamase [3]; pH 10.5,8.85 ± 0.15 min^–1
